From US20260091026A1, “METHODS OF TREATING INFLAMMATORY DISEASES” (INTERLINE THERAPEUTICS, INC., priority 2023, published 2026)

How the values were obtained:
RIPK2 (KD)/XIAP (BIR2) = biological target: T1, RIPK2 (KD)/XIAP (BIR2) (Homo sapiens, UniProt O43353); assay: RIPK2-XIAP binding competition PPI assay (TR-FRET); conditions: for Emax: 50 nM of GSK583 = -100% activity, read-out: PPI Amax; for IC50: GST-RIPK2 / His-XIAP (BIR2)-avi, 120 min at 23° C.
T1 construct: made in house; host or cells: baculovirus-infected Sf9 cells
T1 sequence (O43353 1-310): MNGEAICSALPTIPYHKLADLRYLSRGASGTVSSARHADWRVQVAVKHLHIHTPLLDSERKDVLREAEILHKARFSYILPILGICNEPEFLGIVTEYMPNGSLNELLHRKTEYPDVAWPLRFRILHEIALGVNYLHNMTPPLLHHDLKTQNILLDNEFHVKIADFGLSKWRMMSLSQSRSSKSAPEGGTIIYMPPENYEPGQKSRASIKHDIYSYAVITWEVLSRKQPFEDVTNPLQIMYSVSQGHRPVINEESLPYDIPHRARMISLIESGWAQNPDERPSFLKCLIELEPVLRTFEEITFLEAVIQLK
Outline: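 TR-FRET competition between GST-RIPK2 (aa 1-310, 1 nM) and His-XIAP BIR2-avi (aa 152-231, 25 nM), both Sf9-expressed, detected with anti-His-XL665 and anti-GST-Tb in Tris pH 7.5 buffer with MgCl2, DTT and vanadate. Incubation was 120 min at 23 °C; the 665/520 nm ratio was normalized to no inhibitor (0%) and 50 nM GSK583 (−100%).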

[1] = tested on: THP1-Dual cells, NF-κB pathway (SEAP); assay: THP-1 Dual cell SEAP assay (L18-MDP stimulated); type: cell-based; conditions: Homo sapiens, 10 ng/mL L18-MDP, 20-24 h, SEAP readout, read-out: IFNγ THP1 IC50
Outline: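 About 25,000 THP1-Dual cells per well were preincubated 30 min with serially diluted compound, then stimulated overnight (20-24 h, 37 °C) with 10 ng/mL L18-MDP (final). NF-κB-driven SEAP in supernatant was read with QUANTI-Blue at OD 620-655 nm after 2 h; % inhibition versus DMSO/L18-MDP wells was fitted by non-linear regression to give IC50.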

[2] = biological target: T2, GST-RIPK2 fusion protein (human RIPK2 amino acids 1-310) (Homo sapiens, UniProt O43353); assay: RIPK2 binding competition assay (TR-FRET, Tracer 199); conditions: displacement of Tracer 199 (10 nM), 45 min at 22° C.
T2 construct: made in house; host or cells: baculovirus-infected Sf9 cells
T2 sequence (O43353 1-310): as above
Description: The ability of selected compounds of Formulas (I) and (II) to inhibit the binding of an Alexa647-labelled ATP-competitive kinase inhibitor to a GST-RIPK2 fusion protein was quantified employing the TR-FRET-based RIPK2 binding competition assay as described in the following paragraphs.
Recombinant fusion protein of N-terminal Glutathione-S-Transferase (GST) and a fragment of human RIPK2 (amino acids 1-310 of accession number 043353), expressed in baculovirus infected Sf9 cells, purified via glutathione affinity chromatography, was used as GST-RIPK2 fusion protein. Tracer 199 from Life Technologies (catalogue no. PR9115B) was used as Alexa647-labelled ATP-competitive kinase inhibitor.
For the assay, 50 nL of a 100-fold concentrated solution of each test compound in DMSO was pipetted into either a black low volume 384-well microtiter plate or a black 1536-well microtiter plate (both Greiner Bio-One, Frickenhausen, Germany), 3 μL solution of Tracer 199 (16.7 nM=>final concentration in 5 μL assay volume is 10 nM) in aqueous assay buffer (25 mM Tris/HCl pH 7.5, 10 mM magnesium chloride (MgCl2), 5 mM β-glycerophosphate, 2.5 mM dithiothreitol (DTT), 0.5 mM ethylene glycol-bis(2-aminoethylether)-N,N,N′,N′-tetraacetic acid (EGTA), 0.5 mM sodium ortho-vanadate, 0.01% (w/v) bovine serum albumin (BSA), 0.005% (w/v) Pluronic F-127 (Sigma)) were added. Then the binding competition was started by the addition of 2 μL of a solution of the GST-RIPK2 fusion protein (2.5 nM=>final conc. in the 5 μL assay volume is 1 nM) and of Anti-GST-Tb (1.25 nM=>final conc. in the 5 μL assay volume is 0.5 nM), a Lumi4®—Tb cryptate-conjugated anti-GST antibody from PerkinElmer (catalogue no 61GSTTAH), in assay buffer.
The resulting mixture was incubated 45 min at 22° C. to allow the formation of a complex between the Tracer 199, the fusion protein and Anti-GST-Tb. Subsequently, the amount of this complex was evaluated by measurement of the resonance energy transfer from the Tb-cryptate to the Tracer 199. Therefore, the fluorescence emissions at 620 nm and 665 nm after excitation at 337 nm were measured in a TR-FRET reader, e.g. a Pherastar FS(BMG Labtechnologies, Offenburg, Germany) or a Viewlux (PerkinElmer). The ratio of the emissions at 665 nm and at 620 nm was taken as the measure of the amount of the complex. The data were normalized (assay reaction without inhibitor=0% activity, all other assay components but no GST-RIPK2 fusion protein=−100% activity).

SMILES	Emax (RIPK2 (KD)/XIAP (BIR2)) [%]	IC50 (RIPK2 (KD)/XIAP (BIR2)) [nM]	IC50 [1] [nM]	IC50 [2] [nM]
COc1cc2ncc(-n3cc(C(=O)NCc4c(F)cc(F)cc4F)cn3)n2cc1S(=O)(=O)C(C)(C)C [Example 3, 1-(6-(tert-butylsulfonyl)-7-methoxyimidazo [1,2-a]pyridin-3-yl)-N-(2,4,6-trifluorobenzyl)-1H-pyrazole-4-carboxamide]	30 to 55	> 1000	> 2500	> 1000
COc1cc2ncc(-c3cc(C(=O)NCc4ccccc4Cl)n(C)n3)n2cc1S(=O)(=O)C(C)(C)C [Example 4, 3-(6-(tert-butylsulfonyl)-7-methoxyimidazo[1,2-a]pyridin-3-yl)-N-(2-chlorobenzyl)-1-methyl-1H-pyrazole-5-carboxamide]	≥ 80	10 to 100	500 to 2500	< 200
COc1cc2ncc(-c3cc(C(=O)N(C)C)n(C)n3)n2cc1S(=O)(=O)C(C)(C)C [Example 5, 3-(6-(tert-butylsulfonyl)-7-methoxyimidazo[1,2-a]pyridin-3-yl)-N,N,1-trimethyl-1H-pyrazole-5-carboxamide]	≤ 30	> 1000	> 2500	< 200
COc1cc2ncc(-c3cc(C(=O)NC4CCCCC4)n(C)n3)n2cc1S(=O)(=O)C(C)(C)C [Example 6, 3-(6-(tert-butylsulfonyl)-7-methoxyimidazo[1,2-a]pyridin-3-yl)-N-cyclohexyl-1-methyl-1H-pyrazole-5-carboxamide]	≥ 80	> 1000	> 2500	> 1000
COc1cc2ncc(-n3cc(NC(=O)Cc4ccccc4Cl)cn3)n2cc1S(=O)(=O)C(C)(C)C [Example 152, N-(1-(6-(tert-butylsulfonyl)-7-methoxyimidazo[1,2-a]pyridin-3-yl)-1H-pyrazol-4-yl)-2-(2-chlorophenyl)acetamide]	≥ 80	100 to 1000	> 2500	< 200
COc1cc2ncc(-n3cc(NC(=O)OC(C)(C)C)cn3)n2cc1SC(C)(C)C [Example 153, tert-butyl (1-(6-(tert-butylthio)-7-methoxyimidazo[1,2-a]pyridin-3-yl)-1H-pyrazol-4-yl)carbamate]	≥ 80	> 1000	> 2500	200 to 500
COc1cc2ncc(-n3cc(NC(=O)OC(C)(C)C)cn3)n2cc1S(=O)(=O)C(C)(C)C [Example 154, tert-butyl (1-(6-(tert-butylsulfonyl)-7-methoxyimidazo[1,2-a]pyridin-3-yl)-1H-pyrazol-4-yl)carbamate]	≥ 80	> 1000	> 2500	500 to 1000
COc1cc2ncc(-n3cc(NC(C)=O)cn3)n2cc1S(=O)(=O)C(C)(C)C [Example 155, N-(1-(6-(tert-butylsulfonyl)-7-methoxyimidazo[1,2-a]pyridin-3-yl)-1H-pyrazol-4-yl)acetamide]	≤ 30	> 1000	> 2500	> 1000
COc1cc2ncc(-n3cc(NC(=O)Cc4cccc(F)c4Cl)cn3)n2cc1S(=O)(=O)C(C)(C)C [Example 156, N-(1-(6-(tert-butylsulfonyl)-7-methoxyimidazo[1,2-a]pyridin-3-yl)-1H-pyrazol-4-yl)-2-(2-chloro-3-fluorophenyl)acetamide]	≥ 80	> 1000	> 2500	500 to 1000
COc1cc2ncc(-n3cc(NC(=O)Cc4cc(F)ccc4Cl)cn3)n2cc1S(=O)(=O)C(C)(C)C [Example 157, N-(1-(6-(tert-butylsulfonyl)-7-methoxyimidazo[1,2-a]pyridin-3-yl)-1H-pyrazol-4-yl)-2-(2-chloro-5-fluorophenyl)acetamide]	≥ 80	> 1000	> 2500	500 to 1000
COc1cc2ncc(-n3cc(NC(=O)Cc4ccc(F)cc4Cl)cn3)n2cc1S(=O)(=O)C(C)(C)C [Example 158, N-(1-(6-(tert-butylsulfonyl)-7-methoxyimidazo[1,2-a]pyridin-3-yl)-1H-pyrazol-4-yl)-2-(2-chloro-4-fluorophenyl)acetamide]	≥ 80	> 1000	> 2500	500 to 1000
COc1cc2ncc(-n3cc(NC(=O)Cc4c(F)cccc4Cl)cn3)n2cc1S(=O)(=O)C(C)(C)C [Example 159, N-(1-(6-(tert-butylsulfonyl)-7-methoxyimidazo[1,2-a]pyridin-3-yl)-1H-pyrazol-4-yl)-2-(2-chloro-6-fluorophenyl)acetamide]	≥ 80	100 to 1000	500 to 2500	< 200
COc1cc2ncc(-n3cc(NC(=O)Cc4ccccc4)cn3)n2cc1S(=O)(=O)C(C)(C)C [Example 160, N-(1-(6-(tert-butylsulfonyl)-7-methoxyimidazo[1,2-a]pyridin-3-yl)-1H-pyrazol-4-yl)-2-phenylacetamide]	≥ 80	100 to 1000	> 2500	200 to 500
COc1cc2ncc(-n3cc(NC(=O)[C@H](C)c4ccccc4)cn3)n2cc1S(=O)(=O)C(C)(C)C [Example 161, (R)-N-(1-(6-(tert-butylsulfonyl)-7-methoxyimidazo[1,2-a]pyridin-3-yl)-1H-pyrazol-4-yl)-2-phenylpropanamide]	≥ 80	100 to 1000	> 2500	200 to 500
COc1cc2ncc(-n3cc(NC(=O)[C@@H](C)c4ccccc4)cn3)n2cc1S(=O)(=O)C(C)(C)C [Example 162, (S)-N-(1-(6-(tert-butylsulfonyl)-7-methoxyimidazo[1,2-a]pyridin-3-yl)-1H-pyrazol-4-yl)-2-phenylpropanamide]	≥ 80	> 1000	> 2500	500 to 1000
COc1cc2ncc(-n3cc(NC(=O)C4CC4)cn3)n2cc1S(=O)(=O)C(C)(C)C [Example 163, N-(1-(6-(tert-butylsulfonyl)-7-methoxyimidazo[1,2-a]pyridin-3-yl)-1H-pyrazol-4-yl)cyclopropanecarboxamide]	≤ 30	> 1000	> 2500	> 1000
COc1cc2ncc(-n3cc(NC(=O)C4CCCCC4)cn3)n2cc1S(=O)(=O)C(C)(C)C [Example 164, N-(1-(6-(tert-butylsulfonyl)-7-methoxyimidazo[1,2-a]pyridin-3-yl)-1H-pyrazol-4-yl)cyclohexanecarboxamide]	≥ 80	> 1000	> 2500	> 1000
COc1cc2ncc(-n3cc(NC(=O)C4CCC(F)(F)CC4)cn3)n2cc1S(=O)(=O)C(C)(C)C [Example 165, N-(1-(6-(tert-butylsulfonyl)-7-methoxyimidazo[1,2-a]pyridin-3-yl)-1H-pyrazol-4-yl)-4,4-difluorocyclohexane-1-carboxamide]	55 to 80	> 1000	> 2500	> 1000
COc1cc2ncc(-n3cc(NC(=O)[C@@H](c4ccccc4)N(C)C)cn3)n2cc1S(=O)(=O)C(C)(C)C [Example 166, (R)-N-(1-(6-(tert-butylsulfonyl)-7-methoxyimidazo[1,2-a]pyridin-3-yl)-1H-pyrazol-4-yl)-2-(dimethylamino)-2-phenylacetamide]	≥ 80	> 1000	> 2500	> 1000
